Columns and labels:
HepG2 = assay: XTT cytotoxicity assay, HepG2; assay type: cell-based; conditions: Homo sapiens, HepG2; 72 h incubation; read-out: XTT, IC50 HepG2
Procedure: (§1) HL-60, Hela S3 and HepG2 cell lines (ATCC) were grown in RPMI-1640 or DMEM medium supplemented with 10% fetal calf serum, […] of streptomycin, 200 U/mL of penicillin G and 4 mM glutamine in a humidified atmosphere containing 5% CO2 at 37° C. Sensitivity of these cell lines to the synthesized compounds was assessed with the use of XTT cell proliferation kit II (Roche Diagnostics GmbH, Mannheim, Germany) according to the manufacturer's instructions. Briefly, cells were seeded in a 96-well plate at a density of 10,000 cells per well (90 μL). After 24 h, 10 μL of the tested compounds were added to the culture media at desired concentration range and incubated for 72 h. After that 50 μL of the XTT solution was added (1 mg/mL XTT+0.383 mg/mL N-methyl dibenzopyrazine methyl sulfate). The absorbance was recorded at 495 nm following a 2 h-incubation with the dye. IC50 values were determined by non-linear regression method using GraphPad Prism version 5.00 for Windows (GraphPad Software, La Jolla, Calif., USA).

HL60 = assay: XTT cytotoxicity assay, HL-60; assay type: cell-based; conditions: Homo sapiens, HL-60; 72 h incubation; read-out: XTT, IC50 HL60
Procedure: as §1
In addition, the anti-proliferative effect was tested against a human T-lymphoblastic leukemia line CCRF-CEM, promyelocytic leukemia HL-60 and cervical carcinoma HeLa S3 growing in liquid suspension. Cell viability was determined following a 3-day incubation using 2,3-bis-(2-methoxy-4-nitro-5-sulfophenyl)-2H-tetrazolium-5-carboxanilide (XTT) assay (ref.: Scudiero, D. A.; Shoemaker, R. H.; Paull, K. D.; Monks, A.; Tierney, S.; Nofziger, T. H.; Currens, M. J.; Seniff, D.; Boyd M. R. Evaluation of a Soluble Tetrazolium/Formazan Assay for Cell Growth and Drug Sensitivity in Culture Using Human and Other Tumor Cell Lines. Cancer Res. 1988, 48, 4827-4833).

CCRF-CEM cells [1] = assay: Cell cycle and apoptosis analysis (flow cytometry, propidium iodide); assay type: cell-based, human; conditions: CCRF-CEM cells treated at IC50 for 24 hrs
Procedure: (§2) After the incubation period, cells were then washed with cold 1×PBS and fixed in 70% ethanol added dropwise and stored overnight at −20° C. Afterwards, cells were washed in hypotonic citrate buffer, treated with RNase (50 μg/mL) and stained with propidium iodide. Flow cytometry using a 488 nm single-beam laser (Becton Dickinson) was used for measurement. The data were analyzed according to the program ModFitLT (Verity), and apoptosis was expressed as the percentage of cells with a propidium content lower than that in the G0/G1 population. Half of the sample was used for pH3^ser10 antibody (Sigma) labeling and subsequent flow cytometry analysis of mitotic cells.
(§3) However, the major mechanism of action was inhibition of RNA synthesis (BrU incorporation). […] Cell cycle alterations (G1, S, G2/M) were not observed in treated cells under specified experimental conditions.

CCRF-CEM cells [2] = assay: Mitotic cells, pH3Ser10 antibody labeling (flow cytometry); assay type: cell-based, human; conditions: CCRF-CEM cells treated at IC50 for 24 hrs
Procedure: as §2, §3

CCRF-CEM cells [3] = assay: BrdU incorporation analysis (DNA synthesis); assay type: cell-based, human; conditions: for BrdU+ (DNA synthesis), % of total cell populations: CCRF-CEM cells treated at IC50 for 24 hrs; for DNA synthesis inhibition in words: CCRF-CEM, IC50, 24 hours
Procedure: Cells were cultured as for cell cycle analysis. Before harvesting, they were pulse-labelled with 10 M 5-bromo-2′-deoxyuridine (BrdU) for 30 min. The cells were trypsinized, fixed with ice-cold 70% ethanol, incubated on ice for 30 min, washed with PBS, and resuspended in 2 M HCl for 30 min at room temperature to denature their DNA. Following neutralization with 0.1 M Na2B4O7, the cells were washed with PBS containing 0.5% Tween-20 and 1% BSA. They were then stained with primary anti-BrdU antibody (Exbio) for 30 min at room temperature in the dark. Cells were than washed with PBS and stained with secondary anti-mouse-FITC antibody (Sigma). The cells were then washed with PBS, incubated with propidium iodide (0.1 mg/mL) and RNAse A (0.5 mg/mL) for 1 h at room temperature in the dark, and finally analyzed by flow cytometry using a 488 nm single-beam laser (FACSCalibur, Becton Dickinson).
as §3

CCRF-CEM cells [4] = assay: BrU incorporation analysis (RNA synthesis); assay type: cell-based, human; conditions: CCRF-CEM cells treated at IC50 for 24 hrs
Procedure: Cells were cultured and treated as for cell cycle analysis. Before harvesting, they were pulse-labelled with 1 mM 5-bromouridine (BrU) for 30 min. The cells were fixed in 1% buffered paraformaldehyde with 0.05% of NP-40, incubated in room temperature for 15 min and than in the fridge overnight. They were then washed in 1% glycin in PBS, washed in PBS and stained with primary anti-BrdU antibody crossreacting to BrU (Exbio) for 30 min at room temperature in the dark. Cells were than washed with PBS and stained with secondary anti-mouse-FITC antibody (Sigma). Following the staining the cells are washed with PBS and fixed with 1% PBS buffered paraformaldehyde with 0.05% of NP-40. The cells were then washed with PBS, incubated with propidium iodide (0.1 mg/mL) and RNAse A (0.5 mg/mL) for 1 h at room temperature in the dark, and finally analyzed by flow cytometry using a 488 nm single-beam laser (FACSCalibur, Becton Dickinson).
as §3

Row | Structure (SMILES) | IC50 (HepG2) [nM] | IC50 (HL60) [nM] | G1, % of total cell populations (CCRF-CEM cells [1]) [%] | G2/M, % of total cell populations (CCRF-CEM cells [1]) [%] | S, % of total cell populations (CCRF-CEM cells [1]) [%] | sub-G1 (apoptosis), % of total cell populations (CCRF-CEM cells [1]) [%] | pH3Ser10+ (mitosis), % of total cell populations (CCRF-CEM cells [2]) [%] | BrdU+ (DNA synthesis), % of total cell populations (CCRF-CEM cells [3]) [%] | BrU+ (RNA synthesis), % of total cell populations (CCRF-CEM cells [4]) [%] | melting point [°C] | DNA synthesis inhibition in words (CCRF-CEM cells [3])
1 | COc1ncnc2c1c(-c1ccoc1)cn2[C@@H]1O[C@H](CO)[C@@H](O)[C@H]1O [Compound 1b, 5-(Furan-3-yl)-4-methoxy-7-(β-D-ribofuranosyl)-7H-pyrrolo[2,3-d]pyrimidine] | 290 | 150 | 43.5 | 12.3 | 44.2 | 8.5 | 1.6 | 44.2 | 0.7 | 190 to 192 | 
2 | COc1ncnc2c1c(I)cn2[C@@H]1O[C@H](CO)[C@@H](O)[C@H]1O [Compound 1h, 5-iodo-4-methoxy-7-(β-D-ribofuranosyl)-7H-pyrrolo[2,3-d]pyrimidine, reference compound] | > 20000 | 2300 | 37.9 | 12.9 | 49.2 | 6 | 0.9 | 38.9 | 0.2 |  | barely inhibited
3 | CN(C)c1ncnc2c1c(I)cn2[C@@H]1O[C@H](CO)[C@@H](O)[C@H]1O [Compound 4h, 4-Dimethylamino-5-iodo-7-(β-D-ribofuranosyl)-7H-pyrrolo[2,3-d]pyrimidine] | 13900 | 50 | 39.8 | 13.5 | 46.7 | 9.4 | 1.3 | 48.7 | 4.8 | 195 to 197 | 
4 | COc1ncnc2c1c(-c1ccco1)cn2[C@@H]1O[C@H](CO)[C@@H](O)[C@H]1O [Compound 1a, 5-(Furan-2-yl)-4-methoxy-7-(β-D-ribofuranosyl)-7H-pyrrolo[2,3-d]pyrimidine] | 300 | 100 | 42.8 | 12.9 | 44.3 | 6.8 | 1.4 | 45.3 | 13.8 |  | 
5 | CSc1ncnc2c1c(-c1ccco1)cn2[C@@H]1O[C@H](CO)[C@@H](O)[C@H]1O [Compound 2a, 5-(Furan-2-yl)-4-methylsulfanyl-7-(β-D-ribofuranosyl)-7H-pyrrolo[2,3-d]pyrimidine] | 220 | 120 | 43.5 | 11.3 | 45.3 | 7.9 | 0.7 | 29.5 | 5 |  | barely inhibited
6 | CNc1ncnc2c1c(-c1ccco1)cn2[C@@H]1O[C@H](CO)[C@@H](O)[C@H]1O [Compound 3a, 5-(Furan-2-yl)-4-methylamino-7-(β-D-ribofuranosyl)-7H-pyrrolo[2,3-d]pyrimidine] | 850 | 620 | 42.2 | 12.1 | 45.8 | 10.6 | 1.4 | 47.2 | 1. |  | 
7 | CN(C)c1ncnc2c1c(-c1ccsc1)cn2[C@@H]1O[C@H](CO)[C@@H](O)[C@H]1O [Compound 4d, 4-Dimethylamino-7-(β-D-ribofuranosyl)-5-(thiophen-3-yl)-7H-pyrrolo[2,3-d]pyrimidine] | > 20000 | 1920 | 41.4 | 11.2 | 47.4 | 6.8 | 0.7 | 36.1 | 0.7 |  | barely inhibited
8 | COc1ncnc2c1c(-c1cccs1)cn2[C@@H]1O[C@H](CO)[C@@H](O)[C@H]1O [Compound 1c, 4-Methoxy-7-(β-D-ribofuranosyl)-5-(thiophen-2-yl)-7H-pyrrolo[2,3-d]pyrimidine] | 13900 | 80 | 41.5 | 9.8 | 48.7 | 7.5 | 1.1 | 38.6 | 0.1 | 140 to 143 | 
9 | CSc1ncnc2c1c(I)cn2[C@@H]1O[C@H](CO)[C@@H](O)[C@H]1O [Compound 2h, 5-Iodo-4-methylsulfanyl-7-(β-D-ribofuranosyl)-7H-pyrrolo[2,3-d]pyrimidine] | > 20000 | 50 |  |  |  |  |  |  |  | 217 to 219 | 
10 | CN(C)c1ncnc2c1c(-c1ccco1)cn2[C@@H]1O[C@H](CO)[C@@H](O)[C@H]1O [Compound 4a, 4-Dimethylamino-5-(furan-2-yl)-7-(β-D-ribofuranosyl)-7H-pyrrolo[2,3-d]pyrimidine] | > 15000 | 220 | 31 | 15.4 | 53.6 | 10.2 | 1.5 | 50.6 | 0.4 |  | 
11 | C#Cc1cn([C@@H]2O[C@H](CO)[C@@H](O)[C@H]2O)c2ncnc(N(C)C)c12 [Compound 4g, 4-Dimethylamino-5-ethynyl-7-(β-D-ribofuranosyl)-7H-pyrrolo[2,3-d]pyrimidine] | 1320 | 290 | 38.5 | 14.7 | 46.8 | 8.9 | 1.3 | 43.4 | 8.6 |  | 

Source: US9586986B2, “Substituted 7-deazapurine ribonucleosides for therapeutic uses” (Institute of Organic Chemistry and Biochemistry ASCR, v.v.i., priority 2014, dated 2017)
